Experiments:
[1] = target: T1, CysE (GST-CysE) (Escherichia coli, UniProt P0A9D4); experiment: SAT activity, decrease of OD232 (acetyl-CoA consumption); assay type: biochemical; settings: read-out: % residual activity at 1 μM
T1 construct: template plasmid pCysE
T1 sequence (P0A9D4 2-273): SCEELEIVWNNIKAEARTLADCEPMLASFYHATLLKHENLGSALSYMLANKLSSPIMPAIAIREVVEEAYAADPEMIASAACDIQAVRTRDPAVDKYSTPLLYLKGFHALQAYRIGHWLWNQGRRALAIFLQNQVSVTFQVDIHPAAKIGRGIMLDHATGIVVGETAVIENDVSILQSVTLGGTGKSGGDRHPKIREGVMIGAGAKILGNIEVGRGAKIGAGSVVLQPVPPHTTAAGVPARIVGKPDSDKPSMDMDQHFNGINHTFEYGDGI

[2] = target: T2, OpSat1p (GST-OpSat1p) (Ogataea parapolymorpha, UniProt W1Q867); experiment: as above; assay type: biochemical; settings: read-out: concentration of cysteine at 50% inhibition
T2 construct: gene HPODL_02797; alpha/beta hydrolase 1 domain
T2 sequence (W1Q867 2-499): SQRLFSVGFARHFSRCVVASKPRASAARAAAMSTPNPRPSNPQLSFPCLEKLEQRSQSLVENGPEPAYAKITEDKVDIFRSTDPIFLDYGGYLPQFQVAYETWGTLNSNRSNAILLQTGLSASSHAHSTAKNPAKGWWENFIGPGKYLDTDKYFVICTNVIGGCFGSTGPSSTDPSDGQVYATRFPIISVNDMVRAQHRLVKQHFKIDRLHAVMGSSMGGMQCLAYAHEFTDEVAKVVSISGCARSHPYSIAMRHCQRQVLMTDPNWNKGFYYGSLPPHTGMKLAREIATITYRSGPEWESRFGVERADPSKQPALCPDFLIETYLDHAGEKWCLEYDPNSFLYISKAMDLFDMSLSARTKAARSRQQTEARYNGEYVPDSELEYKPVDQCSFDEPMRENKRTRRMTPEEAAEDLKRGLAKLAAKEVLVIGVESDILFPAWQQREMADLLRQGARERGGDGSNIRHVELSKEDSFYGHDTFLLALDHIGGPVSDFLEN

## N[C@@H](CS)C(=O)O [L-cysteine]
[1]
  remaining activity at 1 µM: ~40%
[2]
  IC50: ~250 µM

— paper PMC5799214, “A Novel Mitochondrial Serine O-Acetyltransferase, OpSAT1, Plays a Critical Role in Sulfur Metabolism in the Thermotolerant Methylotrophic Yeast Ogataea parapolymorpha” (Scientific Reports, 2018)
